From patent US11530244B2, “Cyclic polypeptides for PCSK9 inhibition” (priority 2018, dated 2022)
Starred links: 1 amine or outer side, 2 acyl side, 3 side chain; linkers in the order of their positions; H or OH if unused. Positions of bridges follow the written chain, without caps; N, C: chain ends. Non-standard residues stand in square brackets, D forms with d. Residues, ends and D or L forms follow the SMILES beside them. *: point of attachment. NHCH2C6H4(p)CH2CH2NH = c1cc(CN[*:1])ccc1CCN[*:2]; Phe(4-COOH) = N[C@@H](Cc1ccc(C(=O)O)cc1)C(=O)O; Trp(5-F) = N[C@@H](Cc1c[nH]c2ccc(F)cc12)C(=O)O; Trp(6-F) = N[C@@H](Cc1c[nH]c2cc(F)ccc12)C(=O)O; Isophthaloyl = O=C(c1cccc(C(=O)[*:2])c1)[*:1]; Trp(7-aza) = N[C@@H](Cc1c[nH]c2ncccc12)C(=O)O; Acetyl(2-(4-imidazolyl)) = O=C(Cc1c[nH]cn1)*; Phe(4-CH2NH2) = NCc1ccc(C[C@H](N)C(=O)O)cc1; Heptanedioyl = O=C(CCCCCC(=O)[*:2])[*:1]; Pro(cis-4-F) = O=C(O)[C@@H]1C[C@H](F)CN1; mXylylene = c1cc(C[*:1])cc(C[*:2])c1; AEF = NCCOc1ccc(C[C@H](N)C(=O)O)cc1; Adipoyl = O=C(CCCCC(=O)[*:2])[*:1]; Aad = N[C@@H](CCCC(=O)O)C(=O)O; aThr = C[C@H](O)[C@H](N)C(=O)O; Suc = O=C(CCC(=O)[*:2])[*:1]; αMeP = C[C@@]1(C(=O)O)CCCN1; Isovaleryl = CC(C)CC(=O)*; Orn = NCCC[C@H](N)C(=O)O; Dab = NCC[C@H](N)C(=O)O; Ahx = NCCCCCC(=O)O; X62 = O=C(C(F)F)*; Mpa = O=C(O)CCS

Target: PCSK9 (Homo sapiens (Human), UniProt Q8NBP7)
Assay: PCSK9 Alexa FRET Standard assay (displacement of AlexaFluor647 tagged cyclic peptide Reagent A)
Assay type: binding
Details: IC50, PCSK9 Alexa FRET Standard assay, 0.5 nM PCSK9, 20 nM AF cyclic peptide Reagent A
Procedure: A solution containing 1 nM biotinylated PCSK9+2.5 nM Lance Streptavidin Europium (Strep-Eu) was made in 50 mM HEPES pH 7.4, 0.15 M NaCl, 5 mM CaCl2), 0.01% BSA, and 0.01% Surfactant P20. A separate solution containing 40 nM of the AlexaFluor tagged cyclic peptide was made in the same buffer system. An Echo was used to transfer 0.750 ul of compound to an assay plate followed by the addition of 15 ul of PCSK9+Stept-Eu and 15 ul of AF peptide. The final assay volume was 30.750 ul containing 0.5 nM PCSK9, 1.25 nM Strep-Eu, and 20 nM AF cyclic peptide. The reaction was incubated at room temperature for at least two hours prior to fluorescence measurements using an Envision Multilabel Reader. IC50 values were determined by fitting data to a sigmoidal dose-response curve using nonlinear regression. Ki was then calculated from the IC50 and the KD of AF cyclic peptide. Counts (B-counts) of the europium-labeled PCSK9 were followed to observe if compounds were […]. A fall off of the B-counts likely indicated a false positive of inhibition. Data from this procedure was reported as “A=‘numerical value’ (nanomolar)”

Sequence of PCSK9 (Q8NBP7 153-692): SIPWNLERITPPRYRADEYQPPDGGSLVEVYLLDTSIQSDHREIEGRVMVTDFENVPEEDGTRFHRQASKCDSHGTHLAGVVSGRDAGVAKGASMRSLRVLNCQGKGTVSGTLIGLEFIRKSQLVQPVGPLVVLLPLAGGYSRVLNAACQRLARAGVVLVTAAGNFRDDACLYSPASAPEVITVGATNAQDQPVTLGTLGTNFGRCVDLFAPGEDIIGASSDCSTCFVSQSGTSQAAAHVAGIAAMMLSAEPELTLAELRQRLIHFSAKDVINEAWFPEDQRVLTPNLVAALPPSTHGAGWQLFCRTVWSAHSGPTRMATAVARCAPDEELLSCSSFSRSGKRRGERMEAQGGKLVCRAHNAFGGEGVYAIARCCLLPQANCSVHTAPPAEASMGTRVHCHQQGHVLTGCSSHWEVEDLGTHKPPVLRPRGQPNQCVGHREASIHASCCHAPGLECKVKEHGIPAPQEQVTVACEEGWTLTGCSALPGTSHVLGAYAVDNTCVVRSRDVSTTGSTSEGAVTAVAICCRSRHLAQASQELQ

| Structure (SMILES) | IC50 [µM] |
| --- | --- |
| COc1ccc(C[C@@H]2NC(=O)[C@H]([C@@H](C)O)NC(=O)[C@@H]3C[C@H](F)CN3C(=O)[C@H](Cc3c[nH]c4ccc(F)cc34)NC(=O)[C@H](Cc3c[nH]c4ccc(F)cc34)NC(=O)[C@@H](C)NC(=O)[C@H](CCCCN)NC(=O)[C@@H](NC(=O)Cc3cnc[nH]3)CC(=O)NCCOc3ccc(cc3)C[C@@H](C(N)=O)NC(=O)[C@]3(C)CCCN3C2=O)cc1 [Compound 105] ({Acetyl(2-(4-imidazolyl))}-DK[dA][Trp(5-F)][Trp(5-F)][Pro(cis-4-F)]TY(Me)[αMeP][AEF]-NH2; lactam 1-10) | 1 to 12.1 |
| COc1ccc(C[C@@H]2NC(=O)[C@H]([C@@H](C)O)NC(=O)[C@@H]3C[C@H](F)CN3C(=O)[C@H](Cc3c[nH]c4ccc(F)cc34)NC(=O)[C@H](Cc3c[nH]c4ccc(F)cc34)NC(=O)[C@@H](C)NC(=O)[C@H](CCCCN)NC(=O)[C@@H](NC(=O)C(F)F)CC(=O)NCCOc3ccc(cc3)C[C@@H](C(N)=O)NC(=O)[C@]3(C)CCCN3C2=O)cc1 [Compound 113] (X62-DK[dA][Trp(5-F)][Trp(5-F)][Pro(cis-4-F)]TY(Me)[αMeP][AEF]-NH2; lactam 1-10) | 21 to 50 |

Same assay, conditions: PCSK9 Alexa FRET Standard assay, 0.5 nM PCSK9, 20 nM AF cyclic peptide Reagent A

| Structure (SMILES) | IC50 [µM] |
| --- | --- |
| COc1ccc(C[C@@H]2NC(=O)[C@H]([C@@H](C)O)NC(=O)[C@@H]3C[C@H](F)CN3C(=O)[C@H](Cc3c[nH]c4ccc(F)cc34)NC(=O)[C@H](Cc3c[nH]c4ccc(F)cc34)NC(=O)[C@@H](C)NC(=O)[C@H](CCCCN)NC(=O)[C@@H](NC(=O)Cc3cnc[nH]3)CC(=O)NCCOc3ccc(cc3)C[C@@H](C(N)=O)NC(=O)[C@]3(C)CCCN3C2=O)cc1 [Compound 106] ({Acetyl(2-(4-imidazolyl))}-DK[dA][Trp(5-F)][Trp(5-F)][Pro(cis-4-F)]TY(Me)[αMeP][AEF]-NH2; lactam 1-10) | 1 to 12.1 |

Same assay, conditions: PCSK9 Alexa FRET Standard assay, 0.5 nM PCSK9, 20 nM AF cyclic peptide Reagent A; read-out: IC50

| IC50 [µM] | Structure (SMILES) |
| --- | --- |
| 21 to 50 | COc1ccc(C[C@@H]2NC(=O)[C@H]([C@@H](C)O)NC(=O)[C@@H]3C[C@H](F)CN3C(=O)[C@H](Cc3c[nH]c4ccc(F)cc34)NC(=O)[C@H](Cc3c[nH]c4ccc(F)cc34)NC(=O)[C@@H](C)NC(=O)[C@H](CCCCN)NC(=O)CCC(=O)NCCOc3ccc(cc3)C[C@@H](C(N)=O)NC(=O)[C@]3(C)CCCN3C2=O)cc1 [Compound 098] (K[dA][Trp(5-F)][Trp(5-F)][Pro(cis-4-F)]TY(Me)[αMeP][AEF]-NH2; linker N-9 via Suc) |
| 21 to 50 | COc1ccc(C[C@@H]2NC(=O)[C@H]([C@H](C)O)NC(=O)[C@@H]3C[C@H](F)CN3C(=O)[C@H](Cc3c[nH]c4ccc(F)cc34)NC(=O)[C@H](Cc3c[nH]c4ccc(F)cc34)NC(=O)[C@@H](C)NC(=O)CCCCC(=O)NCCOc3ccc(cc3)C[C@@H](C(N)=O)NC(=O)[C@]3(C)CCCN3C2=O)cc1 [Compound 099] ([dA][Trp(5-F)][Trp(5-F)][Pro(cis-4-F)][aThr]Y(Me)[αMeP][AEF]-NH2; linker N-8 via Adipoyl) |
| 21 to 50 | C[C@@]12CCCN1C(=O)[C@H](Cc1ccc(O)cc1)NC(=O)CN1CCCC[C@H](NC(=O)[C@H](Cc3c[nH]c4ccc(F)cc34)NC(=O)[C@H](Cc3c[nH]c4ccc(F)cc34)NC(=O)CNC(=O)[C@H](CCCCN)NC(=O)CCSCc3cccc(c3)CSC[C@@H](C(N)=O)NC2=O)C1=O [Compound 104] |
| 0.1 to 1 | COc1ccc(C[C@@H]2NC(=O)[C@H]([C@@H](C)O)NC(=O)[C@@H]3C[C@H](F)CN3C(=O)[C@H](Cc3c[nH]c4ccc(F)cc34)NC(=O)[C@H](Cc3c[nH]c4ccc(F)cc34)NC(=O)[C@@H](C)NC(=O)[C@H](CCCCN)NC(=O)[C@@H](NC(=O)CC(C)C)CC(=O)NCCOc3ccc(cc3)C[C@@H](C(N)=O)NC(=O)[C@]3(C)CCCN3C2=O)cc1 [Compound 107] (Isovaleryl-DK[dA][Trp(5-F)][Trp(5-F)][Pro(cis-4-F)]TY(Me)[αMeP][AEF]-NH2; lactam 1-10) |
| 21 to 50 | C[C@@]12CCCN1C(=O)[C@H](Cc1ccc(O)cc1)NC(=O)CN1C(=O)[C@H](CCc3ccccc31)NC(=O)[C@H](Cc1c[nH]c3ccc(F)cc13)NC(=O)[C@H](Cc1c[nH]c3ccc(F)cc13)NC(=O)CNC(=O)[C@H](CCCCN)NC(=O)CCSCc1cccc(c1)CSC[C@@H](C(N)=O)NC2=O [Compound 110] |
| 0.1 to 1 | CC(C)C[C@H]1C(=O)N[C@@H](Cc2ccc(O)cc2)C(=O)N2CCC[C@@]2(C)C(=O)N[C@H](C(N)=O)CSCc2cccc(c2)CSCCC(=O)N[C@@H](CCCCN)C(=O)NCC(=O)N[C@@H](Cc2c[nH]c3ccc(F)cc23)C(=O)N[C@@H](Cc2c[nH]c3ccc(F)cc23)C(=O)N2CCC[C@@]23CCN1C3=O [Compound 127] |
| 21 to 50 | C[C@@]12CCCN1C(=O)[C@H](Cc1ccc(O)cc1)NC(=O)CN1C(=O)[C@H](N=C(C3CCCCC3)c3ccccc31)NC(=O)[C@H](Cc1c[nH]c3ccc(F)cc13)NC(=O)[C@H](Cc1c[nH]c3ccc(F)cc13)NC(=O)CNC(=O)[C@H](CCCCN)NC(=O)CCSCc1cccc(c1)CSC[C@@H](C(N)=O)NC2=O [Compound 128] |
| 21 to 50 | NCCCC[C@@H]1NC(=O)CCSCc2cccc(c2)CSC[C@@H](C(N)=O)NC(=O)[C@@H]2CCCN2C(=O)[C@H](Cc2c[nH]c3ncccc23)NC(=O)[C@H](Cc2c[nH]cn2)NC(=O)[C@H](CC(=O)O)NC(=O)[C@H](Cc2c[nH]c3ccc(F)cc23)NC(=O)[C@H](Cc2c[nH]c3ccc(F)cc23)NC(=O)CNC1=O [Compound 235] ([Mpa]KG[Trp(5-F)][Trp(5-F)]DH[Trp(7-aza)]PC-NH2; linker 1-10 via mXylylene) |
| 21 to 50 | CC(=O)N[C@H]1CCc2cn(nn2)-c2ccc(cc2)C[C@@H](C(N)=O)NC(=O)[C@]2(C)CCCN2C(=O)[C@H](Cc2ccc(O)cc2)NC(=O)[C@H](Cc2cnc[nH]2)NC(=O)[C@H](CC(=O)O)NC(=O)[C@H](Cc2c[nH]c3ccc(F)cc23)NC(=O)[C@H](Cc2c[nH]c3ccc(F)cc23)NC(=O)CNC(=O)[C@H](C)NC1=O [Compound 331] |
| 21 to 50 | COc1ccc(C[C@@H]2NC(=O)[C@H](Cc3cnc[nH]3)NC(=O)[C@H](CC(=O)O)NC(=O)[C@H](Cc3c[nH]c4ccc(F)cc34)NC(=O)[C@H](Cc3c[nH]c4ccc(F)cc34)NC(=O)[C@@H](C)NC(=O)[C@H](NC(C)=O)CCCCNC(=O)c3ccc(cc3)C[C@@H](C(N)=O)NC(=O)[C@]3(C)CCCN3C2=O)cc1 [Compound 341] (Ac-[dK][dA][Trp(5-F)][Trp(5-F)]DHY(Me)[αMeP][Phe(4-COOH)]-NH2; lactam 1-9) |
| 21 to 50 | COc1ccc(C[C@@H]2NC(=O)[C@H](Cc3cnc[nH]3)NC(=O)[C@H](CC(=O)O)NC(=O)[C@H](Cc3c[nH]c4ccc(F)cc34)NC(=O)[C@H](Cc3c[nH]c4ccc(F)cc34)NC(=O)[C@@H](C)NC(=O)[C@H](CCCCN)NC(=O)[C@@H](NC(C)=O)CC(=O)NCc3ccc(cc3)C[C@@H](C(N)=O)NC(=O)[C@]3(C)CCCN3C2=O)cc1 [Compound 348] (Ac-DK[dA][Trp(5-F)][Trp(5-F)]DHY(Me)[αMeP][Phe(4-CH2NH2)]-NH2; lactam 1-10) |

| Structure (SMILES) | IC50 [µM] |
| --- | --- |
| COc1ccc(C[C@@H]2NC(=O)[C@H]([C@@H](C)O)NC(=O)[C@@H]3C[C@H](F)CN3C(=O)[C@H](Cc3c[nH]c4ccc(F)cc34)NC(=O)[C@H](Cc3c[nH]c4ccc(F)cc34)NC(=O)[C@@H](C)NC(=O)[C@H](CCCCN)NC(=O)[C@@H](NC(C)=O)CCCC(=O)NCc3ccc(cc3)CCNC(=O)[C@]3(C)CCCN3C2=O)cc1 [Compound 096] (Ac-[Aad]K[dA][Trp(5-F)][Trp(5-F)][Pro(cis-4-F)]TY(Me)[αMeP]; linker 1-C via NHCH2C6H4(p)CH2CH2NH) | 0.1 to 1 |
| COc1ccc(C[C@@H]2NC(=O)[C@H]([C@@H](C)O)NC(=O)[C@@H]3C[C@H](F)CN3C(=O)[C@H](Cc3c[nH]c4ccc(F)cc34)NC(=O)[C@H](Cc3c[nH]c4ccc(F)cc34)NC(=O)[C@@H](C)NC(=O)CCCCCC(=O)NCc3ccc(cc3)C[C@@H](C(N)=O)NC(=O)[C@]3(C)CCCN3C2=O)cc1 [Compound 125] ([dA][Trp(5-F)][Trp(5-F)][Pro(cis-4-F)]TY(Me)[αMeP][Phe(4-CH2NH2)]-NH2; linker N-8 via Heptanedioyl) | 21 to 50 |
| COc1ccc(C[C@@H]2NC(=O)[C@H]([C@H](C)O)NC(=O)[C@@H]3C[C@H](F)CN3C(=O)[C@H](Cc3c[nH]c4ccc(F)cc34)NC(=O)[C@H](Cc3c[nH]c4ccc(F)cc34)NC(=O)[C@@H](C)NC(=O)[C@H](C)NC(=O)[C@@H](NC(C)=O)CCNC(=O)c3cccc(c3)C(=O)NCCC[C@@H](C(N)=O)NC(=O)[C@]3(C)CCCN3C2=O)cc1 [Compound 134] (Ac-[Dab]A[dA][Trp(5-F)][Trp(5-F)][Pro(cis-4-F)][aThr]Y(Me)[αMeP][Orn]-NH2; linker 1-10 via Isophthaloyl) | 21 to 50 |
| CC(=O)N[C@H]1CCCc2cn(nn2)-c2ccc(cc2)C[C@@H](C(N)=O)NC(=O)[C@]2(C)CCCN2C(=O)[C@H](Cc2ccc(O)cc2)NC(=O)[C@H](Cc2cnc[nH]2)NC(=O)[C@H](CC(=O)O)NC(=O)[C@H](Cc2c[nH]c3ccc(F)cc23)NC(=O)[C@H](Cc2c[nH]c3ccc(F)cc23)NC(=O)CNC(=O)[C@H](C)NC1=O [Compound 337] | 21 to 50 |
| COc1ccc(C[C@@H]2NC(=O)[C@H](Cc3cnc[nH]3)NC(=O)[C@H](CC(=O)O)NC(=O)[C@H](Cc3c[nH]c4cc(F)ccc34)NC(=O)[C@H](Cc3c[nH]c4ccc(F)cc34)NC(=O)[C@@H](C)NC(=O)CCCCCNC(=O)c3ccc(cc3)C[C@@H](C(N)=O)NC(=O)[C@]3(C)CCCN3C2=O)cc1 [Compound 350] ([Ahx][dA][Trp(5-F)][Trp(6-F)]DHY(Me)[αMeP][Phe(4-COOH)]-NH2; lactam N-9) | 21 to 50 |
